Results on six compounds are retold here after ChEMBL document CHEMBL1201861, “Genomics of Drug Sensitity in Cancer screening data, Wellcome Trust Sanger Institute”.

Some results are limits rather than exact numbers.

Assay in all cases: cells
Test [1] concerns IST-SL1. Type of test: functional, cell-based, Homo sapiens. Particulars: Homo sapiens, IST-SL1.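 Further: growth inhibition of human IST-SL1 cells, read out with a cell viability assay.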
Description: SANGER: Inhibition of human IST-SL1 cell growth in a cell viability assay.
Test [2] has as its system LS-1034. Type of test: functional, cell-based, Homo sapiens. The note with it: Homo sapiens, LS-1034.
Description: SANGER: Inhibition of human LS-1034 cell growth in a cell viability assay.
For test [3], the system named is MZ2-MEL. The format is functional, cell-based, Homo sapiens. Particulars: Homo sapiens, MZ2-MEL.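 Further: growth inhibition of MZ2-MEL cells read out with a cell viability assay.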
Description: SANGER: Inhibition of human MZ2-MEL cell growth in a cell viability assay.
Test [4] relates to LOX IMVI. The format is functional, cell-based. Particulars: Homo sapiens.
Description: SANGER: Inhibition of human LOXIMVI cell growth in a cell viability assay.
Test [5] has as its system SK-MEL-1. The format is functional, cell-based. The note with it: Homo sapiens.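 Further: growth inhibition of human SK-MEL-1 cells, read out by a cell viability assay.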
Description: SANGER: Inhibition of human SK-MEL-1 cell growth in a cell viability assay.
In test [6] the test system is KGN. Type of test: functional, cell-based, Homo sapiens. The note with it: Homo sapiens, KGN.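 Further: growth inhibition of KGN cells, read out with a cell viability assay.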
Description: SANGER: Inhibition of human KGN cell growth in a cell viability assay.
Test [7] deals with NTERA-2-cl-D1. The format is functional, cell-based, Homo sapiens. The note with it: Homo sapiens, NTERA-2-cl-D1.
Description: SANGER: Inhibition of human NTERA-S-cl-D1 cell growth in a cell viability assay.
The subject of test [8] is D-542MG. The format is functional, cell-based, Homo sapiens. Particulars: Homo sapiens, D-542MG.
Description: SANGER: Inhibition of human D-542MG cell growth in a cell viability assay.
For test [9], the system named is MC116. Type of test: functional, cell-based. The note with it: Homo sapiens.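 Further: growth inhibition of MC116 cells, read out with a cell viability assay.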
Description: SANGER: Inhibition of human MC116 cell growth in a cell viability assay.
Test [10] relates to KARPAS-299. The format is functional, cell-based. The note with it: Homo sapiens.
Description: SANGER: Inhibition of human KARPAS-299 cell growth in a cell viability assay.
For test [11], the system named is JVM-2. The format is functional, cell-based. The note with it: Homo sapiens.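 Further: growth inhibition of JVM-2 cells determined by a cell viability assay.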
Description: SANGER: Inhibition of human JVM-2 cell growth in a cell viability assay.
For test [12], the system named is MN-60. The format is functional, cell-based. The note with it: Homo sapiens.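 Further: growth inhibition of the MN-60 cell line, determined with a cell viability assay.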
Description: SANGER: Inhibition of human MN-60 cell growth in a cell viability assay.
Test [13] has as its system MPP-89. The format is functional, cell-based, Homo sapiens. The note with it: Homo sapiens, MPP-89.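 Further: growth inhibition of human MPP-89 cells, read out with a cell viability assay.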
Description: SANGER: Inhibition of human MPP-89 cell growth in a cell viability assay.
Test [14] concerns MZ1-PC. The format is functional, cell-based, Homo sapiens. Particulars: Homo sapiens, MZ1-PC.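 Further: cell viability assay measuring growth inhibition of human MZ1-PC cells.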
Description: SANGER: Inhibition of human MZ1-PC cell growth in a cell viability assay.
Test [15] has as its system DEL. The format is functional, cell-based. Particulars: Homo sapiens.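 Further: growth inhibition of the human DEL cell line, read out with a cell viability assay.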
Description: SANGER: Inhibition of human DEL cell growth in a cell viability assay.
Test [16] has as its system NCI-H23. Type of test: functional, cell-based, Homo sapiens. The note with it: Homo sapiens, NCI-H23.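 Further: cell viability assay measuring growth inhibition of NCI-H23 cells.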
Test [17] relates to HT-144. Type of test: functional, cell-based, Homo sapiens. The note with it: Homo sapiens, HT-144.
Description: SANGER: Inhibition of human HT-144 cell growth in a cell viability assay.
Test [18] deals with IST-MEL1. Type of test: functional, cell-based, Homo sapiens. The note with it: Homo sapiens, IST-MEL1.
Description: SANGER: Inhibition of human IST-MEL1 cell growth in a cell viability assay.
Test [19] concerns SK-MEL-2. Type of test: functional, cell-based, Homo sapiens. The note with it: Homo sapiens, SK-MEL-2.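 Further: growth inhibition of human SK-MEL-2 cells measured with a cell viability assay.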
Description: SANGER: Inhibition of human SK-MEL-2 cell growth in a cell viability assay.
In test [20] the test system is LU-134-A. Type of test: functional, cell-based. The note with it: Homo sapiens.
Description: SANGER: Inhibition of human LU-134-A cell growth in a cell viability assay.
The test system of test [21] is SH-4. The format is functional, cell-based, Homo sapiens. The note with it: Homo sapiens, SH-4.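 Further: growth inhibition of SH-4 cells, read out with a cell viability assay.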
Description: SANGER: Inhibition of human SH-4 cell growth in a cell viability assay.
Test [22] deals with TE-12. Type of test: functional, cell-based. The note with it: Homo sapiens.
Description: SANGER: Inhibition of human TE-12 cell growth in a cell viability assay.
Test [23] concerns LC-2-ad. Type of test: functional, cell-based, Homo sapiens. The note with it: Homo sapiens, LC-2-ad.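 Further: growth inhibition of human LC-2-ad cells, read out with a cell viability assay.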
Description: SANGER: Inhibition of human LC-2-ad cell growth in a cell viability assay.
Test [24] deals with KMOE-2. The format is functional, cell-based. The note with it: Homo sapiens.
Description: SANGER: Inhibition of human KMOE-2 cell growth in a cell viability assay.
In test [25] the test system is TE-11. Type of test: functional, cell-based, Homo sapiens. The note with it: Homo sapiens, TE-11.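 Further: growth inhibition of human TE-11 cells, read out by a cell viability assay.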
Description: SANGER: Inhibition of human TE-11 cell growth in a cell viability assay.

On to `C=C1C(=O)O[C@@H]2C3O[C@]3(C)CC/C=C(\C)CC[C@@H]12` (some centres undefined), for which the IC50 in test [1], in test [2], in test [3], in test [4], in test [5] and in test [6] was over 5000 nM each time. In addition, the IC50 in [7], in test [8], in test [9], in test [10], in test [11] and in test [12] was over 5000 nM throughout. Further, the IC50 in test [13], in [14], in test [15], in test [16], in test [17] and in [18] was over 5000 nM each time. Moreover, the IC50 in [19], in test [20], in test [21], in [22], in test [23] and in test [24] was over 5000 nM each time.

`CC1=C2C[C@H]3[C@@H](CC=C4C[C@@H](O)CC[C@@]43C)[C@@H]2CC[C@]12O[C@@H]1C[C@H](C)CN[C@H]1[C@H]2C` [CYCLOPAMINE]: the IC50 in test [1], in test [2], in test [3], in [4], in test [5] and in test [6] was over 16000 nM in each case. Also, the IC50 in test [7], in test [8], in test [9], in test [10], in test [11] and in test [12] was over 16000 nM throughout. Further, the IC50 in test [13], in test [14], in test [15], in test [16], in test [17] and in test [18] was over 16000 nM each time. The IC50 in test [19], in [20], in test [21], in [22], in test [23] and in test [24] was over 16000 nM throughout.

`CN1CCN(CCOc2cc(OC3CCOCC3)c3c(Nc4c(Cl)ccc5c4OCO5)ncnc3c2)CC1` [SARACATINIB]: the IC50 was over 2000 nM in [1]; over 2000 nM in test [2]; over 2000 nM in test [3]; over 2000 nM in test [4]; over 2000 nM in test [5]; 1280 nM in [6]. The IC50 in test [7], in [9], in [10], in test [11], in [12] and in test [13] was over 2000 nM in each case. Besides, the IC50 is over 2000 nM in test [14]; over 2000 nM in test [15]; over 2000 nM in test [16]; 1430 nM in test [25]; over 2000 nM in [17]; over 2000 nM in test [18]. Also, the IC50 in test [19] was over 2000 nM; in test [20], over 2000 nM; in test [21], over 2000 nM; in test [22], 327 nM; in [23], over 2000 nM; in test [24] it was over 2000 nM.

As to `CO[C@H]1C[C@@H]2CC[C@@H](C)[C@@](O)(O2)C(=O)C(=O)N2CCCC[C@H]2C(=O)O[C@H]([C@H](C)C[C@@H]2CC[C@@H](O)[C@H](OC)C2)CC(=O)[C@H](C)/C=C(\C)[C@@H](O)[C@@H](OC)C(=O)[C@H](C)C[C@H](C)/C=C/C=C/C=C/1C` [SIROLIMUS], the IC50 in [1] was over 100 nM; in test [2] it was over 100 nM; in test [3], over 100 nM; in test [4], over 100 nM; in test [5], over 100 nM; in [6] it was 96.3 nM. Further, the IC50 is 0.443 nM in test [7]; 0.985 nM in test [9]; 61.8 nM in [10]; over 100 nM in [11]; over 100 nM in [12]; over 100 nM in test [13]. The IC50 in test [14] is over 100 nM; in [15], 18 nM; in [16], over 100 nM; in test [25], 77.2 nM; in test [17] it was over 100 nM; in [18], over 100 nM. Further, the IC50 in test [19] is over 100 nM; in test [20] it was over 100 nM; in test [21], 4.34 nM; in test [22], over 100 nM; in test [23], 0.423 nM; in test [24] it was over 100 nM.

In the case of `CCC(=O)N1CCN(c2ccc(-n3c(=O)ccc4cnc5ccc(-c6cnc7ccccc7c6)cc5c43)cc2C(F)(F)F)CC1` [TORIN1], the IC50 in [1] was 858 nM; in [2] it was 364 nM; in test [3], 23.4 nM; in [4] it was 125 nM; in test [5] it was over 1200 nM; in [6] it was 13.6 nM. For the same compound, the IC50 was 32.3 nM in [7]; 26.8 nM in test [9]; 122 nM in [10]; over 1200 nM in test [11]; 299 nM in test [12]; 181 nM in [13]. Moreover, the half-inhibitory concentration (IC50) stood at 66 nM in test [14]; 28.1 nM in test [15]; 84.4 nM in test [16]; 23.7 nM in test [25]; 14.5 nM in test [17]; 17.7 nM in test [18]. The IC50 in [19] was 464 nM; in [20] it was 553 nM; in [21] it was 35.8 nM; in test [22], 25.5 nM; in test [23] it was 21.4 nM; in [24], 275 nM.

As to `Cc1cc(Nc2cc(N3CCN(C)CC3)nc(Sc3ccc(NC(=O)C4CC4)cc3)n2)n[nH]1` [TOZASERTIB], the IC50 in [1] is over 2000 nM; in test [2], over 2000 nM; in test [3], over 2000 nM; in [4], over 2000 nM; in [5], over 2000 nM; in [6], 900 nM. The 50% inhibitory concentration (IC50) in test [7] is 14.3 nM; in test [9] it was 850 nM; in [10], over 2000 nM; in [11], over 2000 nM; in test [12], over 2000 nM; in test [13], over 2000 nM. In addition, the IC50 was over 2000 nM in [14]; 1260 nM in test [15]; over 2000 nM in test [16]; 150 nM in test [25]; 638 nM in [17]; over 2000 nM in [18]. Moreover, the IC50 in test [19] was over 2000 nM; in [20] it was over 2000 nM; in [21], over 2000 nM; in test [22], over 2000 nM; in [23] it was 87.9 nM; in test [24], over 2000 nM.

The term IC50 denotes the concentration that inhibits the measured activity by half.
